These results are taken from US20220000798A1, “TRANS-RESVERATROL TOPICAL MEDICATION FOR THE TREATMENT OF PAIN AND METHOD OF MANUFACTURE THEREOF” (Ted's Brain Science, Inc., priority 2017, published 2022).

One data set has as its system AMPK. Nature of the data set: AMPK activation by resveratrol isomers. The format is biochemical. The conditions noted are these: isomer of resveratrol. The text has this: It is thus realized herein that including cis-resveratrol in a topical medication would be particularly disadvantageous, because it would contribute to the grainy or greasy feeling of the medication without contributing to its AMPK-activating efficacy.

Another data set has as its system pain. The following applies: animal model (rodents); administration by injection; cited from earlier work.
Data set [1] is described as follows: storage stability of trans-resveratrol powder. The format is physicochemical. The following applies: well-sealed containers kept away from light. The protocol:
In one embodiment, trans-resveratrol is prepared in the form of off-white to cream-colored powder with >99% purity as determined by high-performance liquid chromatography (HPLC) methodology. The resulting powder has a melting point of 260-264° C.

For `Oc1ccc(/C=C\c2cc(O)cc(O)c2)cc1` [Cis-resveratrol], in the data set on AMPK, the AMPK activation entry was “appears not to activate AMPK to any meaningful degree or extent”. For `Oc1ccc(C=Cc2cc(O)cc(O)c2)cc1` [resveratrol], the “efficacy in mitigation of pain” value in the data set with pain is “has shown efficacy in mitigation of pain”. Take `Oc1ccc(/C=C/c2cc(O)cc(O)c2)cc1` [trans-resveratrol, 3,4′,5-trihydroxystilbene]: in the data set on AMPK, the AMPK activation entry is on record as “activates AMPK”. Further, in data set [1], the stability over time result is given as “over two years”.
